Each structure is given as a SMILES string. Calls of active or inactive are those of the source. The calls are words filed in the database; no cut-off is given here.

For series [1], the target named is T1, Liver carboxylesterase (Sus scrofa, UniProt Q29550).
T1 sequence (Q29550 whole entry): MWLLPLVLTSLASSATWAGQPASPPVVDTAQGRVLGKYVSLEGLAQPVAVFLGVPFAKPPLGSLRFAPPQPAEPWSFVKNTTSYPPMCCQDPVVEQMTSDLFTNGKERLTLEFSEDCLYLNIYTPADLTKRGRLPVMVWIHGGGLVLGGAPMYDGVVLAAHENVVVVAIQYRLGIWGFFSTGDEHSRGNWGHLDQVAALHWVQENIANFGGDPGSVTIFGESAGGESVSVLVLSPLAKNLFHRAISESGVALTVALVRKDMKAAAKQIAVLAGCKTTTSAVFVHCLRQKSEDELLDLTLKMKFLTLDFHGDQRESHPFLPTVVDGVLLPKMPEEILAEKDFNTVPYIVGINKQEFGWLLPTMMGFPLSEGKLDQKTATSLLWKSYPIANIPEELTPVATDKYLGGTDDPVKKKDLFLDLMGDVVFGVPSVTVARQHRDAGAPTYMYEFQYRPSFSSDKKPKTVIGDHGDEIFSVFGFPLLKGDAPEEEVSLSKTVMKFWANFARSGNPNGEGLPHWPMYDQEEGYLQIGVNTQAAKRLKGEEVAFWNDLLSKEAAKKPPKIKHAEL
Description: Inhibition of porcine liver carboxylesterase using 4-nitrophenol acetate as substrate incubated for 10 mins followed by substrate addition by spectrophotometric method

For the next series, the target named is Acetylcholinesterase (Homo sapiens, UniProt P22303).
Series [2] addresses T2, Cholinesterase (Equus caballus, UniProt P81908).
Description: Inhibition of equine serum BChE using butylthiocholine iodide as substrate incubated for 10 mins followed by substrate addition by Ellman's method
Series [3] concerns the target T1, Liver carboxylesterase. Nature of the series: in vitro. The note with it: pig, porcine liver carboxylesterase, probe 4-nitrophenol acetate.
Description: Inhibition of porcine liver carboxylesterase at 20 uM using 4-nitrophenol acetate as substrate incubated for 10 mins followed by substrate addition by spectrophotometric method relative to control
Series [4] deals with Cholinesterase (Equus caballus) (UniProt P81908). As to the kind of experiment: Inhibition of equine serum BChE at 20 uM using butylthiocholine iodide as substrate incubated for 10 mins followed by substrate addition by Ellman's method relative to control. In general terms: Ellman's reagent forms a yellow product with free thiols.
Series [5] shares this target. As to the kind of experiment: Non-competitive inhibition of equine serum BChE using butylthiocholine iodide as substrate incubated for 10 mins followed by substrate addition by Lineweaver-Burk double-reciprocal plot analysis.
For series [6], the target named is T2, Cholinesterase. As to the kind of experiment: Competitive inhibition of equine serum BChE using butylthiocholine iodide as substrate incubated for 10 mins followed by substrate addition by Lineweaver-Burk double-reciprocal plot analysis.

Chain of Acetylcholinesterase (P22303 whole entry): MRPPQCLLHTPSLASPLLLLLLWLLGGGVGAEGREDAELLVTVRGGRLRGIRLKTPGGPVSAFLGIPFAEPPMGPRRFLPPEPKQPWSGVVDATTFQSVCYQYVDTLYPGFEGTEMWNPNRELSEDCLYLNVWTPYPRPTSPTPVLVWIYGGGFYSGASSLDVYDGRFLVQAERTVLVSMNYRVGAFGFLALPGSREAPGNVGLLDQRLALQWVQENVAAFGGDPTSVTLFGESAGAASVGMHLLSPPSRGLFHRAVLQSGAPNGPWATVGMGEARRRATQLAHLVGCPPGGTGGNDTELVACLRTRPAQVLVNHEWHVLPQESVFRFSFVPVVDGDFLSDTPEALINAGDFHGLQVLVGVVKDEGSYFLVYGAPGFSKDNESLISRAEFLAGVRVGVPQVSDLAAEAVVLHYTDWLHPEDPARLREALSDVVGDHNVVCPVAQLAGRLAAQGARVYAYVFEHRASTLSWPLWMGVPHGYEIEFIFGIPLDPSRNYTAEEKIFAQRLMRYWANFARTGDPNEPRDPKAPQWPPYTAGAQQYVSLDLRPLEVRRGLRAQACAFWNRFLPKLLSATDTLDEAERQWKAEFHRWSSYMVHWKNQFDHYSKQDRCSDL
T2 sequence (P81908 whole entry): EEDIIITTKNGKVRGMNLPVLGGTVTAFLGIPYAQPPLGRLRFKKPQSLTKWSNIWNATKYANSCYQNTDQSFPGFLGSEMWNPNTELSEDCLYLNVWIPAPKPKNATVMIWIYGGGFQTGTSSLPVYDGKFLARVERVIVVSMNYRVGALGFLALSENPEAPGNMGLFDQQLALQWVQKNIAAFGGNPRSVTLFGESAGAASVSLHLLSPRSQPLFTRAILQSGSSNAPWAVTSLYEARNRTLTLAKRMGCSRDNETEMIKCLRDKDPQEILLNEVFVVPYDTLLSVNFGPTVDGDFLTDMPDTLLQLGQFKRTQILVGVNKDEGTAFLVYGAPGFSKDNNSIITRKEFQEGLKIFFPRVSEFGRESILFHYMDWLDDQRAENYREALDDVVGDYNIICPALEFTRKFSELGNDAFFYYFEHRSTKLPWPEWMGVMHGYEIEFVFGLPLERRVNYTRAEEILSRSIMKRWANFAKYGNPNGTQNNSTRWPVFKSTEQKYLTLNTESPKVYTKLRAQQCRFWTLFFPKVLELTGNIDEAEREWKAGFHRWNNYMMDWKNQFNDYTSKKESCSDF
Chain of Cholinesterase (Equus caballus) (P81908 whole entry): as above
Description for Acetylcholinesterase: Inhibition of human erythrocyte AChE using acetylthiocholine iodide as substrate incubated for 10 mins followed by substrate addition by Ellman's method

Consider `C=Cc1oc2ccc(Br)cc2c(=O)c1CN(/C=C/C(C)=O)Cc1ccccc1`, for which the values for the half-inhibitory concentration (IC50) against Liver carboxylesterase [1], against Acetylcholinesterase and against Cholinesterase [2] were greater than 20 µM, greater than 20 µM and 13.5 µM, respectively. Besides, the inhibition (in general, the share of the control response that was lost under treatment) at 10 min, 20 µM against Liver carboxylesterase [3] was determined as 4.6%.

Turning to `O=[N+]([O-])c1ccc(OP(=O)(O)Oc2ccc([N+](=O)[O-])cc2)cc1`, the inhibition result in series [4] was “inactive”.

`C=Cc1oc2c(OCC)cccc2c(=O)c1CN(C)/C=C/C(=O)OC`: the IC50 (commonly the midpoint of a concentration-inhibition curve) on Liver carboxylesterase [1] was greater than 20 µM. In addition, in series [4], the inhibition entry is “inactive”. This molecule displayed an inhibition at 10 min, 20 µM against Liver carboxylesterase [3] of 7.9%.

As to `COC(=O)/C=C(\C(=O)OC)N1CCc2oc3ccccc3c(=O)c2C1`, the IC50 at Liver carboxylesterase [1] and against Cholinesterase [2] was greater than 20 µM throughout. For the same molecule, the inhibition in series [4] is 7.5%. On Liver carboxylesterase [3], this molecule returned an inhibition at 10 min, 20 µM of 19.8%.

Turning to `C=Cc1oc2ccccc2c(=O)c1CN(Cc1ccccc1)/C(=C/C(=O)OC)C(=O)OC`, the concentration for half-maximal inhibition (IC50) against Liver carboxylesterase [1] is greater than 20 µM; at Acetylcholinesterase, greater than 20 µM; at Cholinesterase [2], 13.8 µM. At Liver carboxylesterase [3], this molecule showed an inhibition at 10 min, 20 µM of 26.4%.

For the molecule `C=Cc1oc2ccccc2c(=O)c1CN(/C=C/C(C)=O)Cc1ccccc1`, the IC50 was greater than 20 µM at Liver carboxylesterase [1], greater than 20 µM against Acetylcholinesterase and 4.75 µM against Cholinesterase [2]. In series [5], this molecule registered an alphaKi of 9.14 µM. On Cholinesterase [6], the inhibition constant (Ki) (commonly the dissociation constant of the complex between target and ligand, obtained from inhibition or displacement) was 2.12 µM. For the same molecule, the inhibition at 10 min, 20 µM on Liver carboxylesterase [3] came out at 10%.

As to `CCOc1cccc2c(=O)c3c(oc12)CCN(/C(=C/C(=O)OC)C(=O)OC)C3`, the IC50 against Liver carboxylesterase [1], at Acetylcholinesterase and against Cholinesterase [2] was greater than 20 µM throughout. The same molecule came in with an inhibition in series [4] of 20.7%. Also, the inhibition at 10 min, 20 µM against Liver carboxylesterase [3] stood at 3.5%.

Take `C=Cc1oc2ccc(Br)cc2c(=O)c1CN(C)/C=C/C(=O)OC`: the IC50 against Liver carboxylesterase [1], against Acetylcholinesterase and against Cholinesterase [2] was greater than 20 µM each time. Also, the inhibition in series [4] came out at 14.1%. At Liver carboxylesterase [3], the inhibition at 10 min, 20 µM was found to be 10.5%.

Regarding `C=Cc1oc2ccc(Br)cc2c(=O)c1CN(Cc1ccccc1)/C(=C/C(=O)OC)C(=O)OC`, the IC50 at Liver carboxylesterase [1], at Acetylcholinesterase and against Cholinesterase [2] was greater than 20 µM in each case. The same molecule had an inhibition in series [4] of 21.9%. Also, the inhibition at 10 min, 20 µM against Liver carboxylesterase [3] came to 15.2%.

As for `O=c1c2c(oc3ccc(Br)cc13)CCN(Cc1ccccc1)C2`, the 50% inhibitory concentration (IC50) at Liver carboxylesterase [1], against Acetylcholinesterase and at Cholinesterase [2] was greater than 20 µM throughout. Moreover, in series [4], the inhibition was found to be 3.3%. The same molecule returned an inhibition at 10 min, 20 µM against Liver carboxylesterase [3] of 31.2%.

Take `C=Cc1oc2c(OCC)cccc2c(=O)c1CN(Cc1ccccc1)/C(=C/C(=O)OC)C(=O)OC`: the IC50 against Liver carboxylesterase [1] and against Cholinesterase [2] was greater than 20 µM in each case. In series [4], this molecule came in with an inhibition of 11.2%. Moreover, the inhibition at 10 min, 20 µM on Liver carboxylesterase [3] was 14.4%.

In the case of `CCOc1cccc2c(=O)c3c(oc12)CCN(C)C3`, the 50% inhibitory concentration (IC50) against Liver carboxylesterase [1] and on Acetylcholinesterase was greater than 20 µM throughout. Also, in series [4], the inhibition result is “inactive”. Further, on Liver carboxylesterase [3], the inhibition at 10 min, 20 µM was 7.6%.

Molecule `CCOc1cccc2c(=O)c3c(oc12)CCN(Cc1ccccc1)C3` displayed an inhibition in series [4] of 13.2%. Also, the IC50 against Acetylcholinesterase and against Cholinesterase [2] was greater than 20 µM in each case.

With `C=Cc1oc2ccc(Br)cc2c(=O)c1CN(/C=C/C(=O)OC)Cc1ccccc1`, the half-maximal inhibitory concentration (IC50) on Liver carboxylesterase [1] is greater than 20 µM; against Acetylcholinesterase, greater than 20 µM; at Cholinesterase [2], 2.27 µM. Further, in series [5], the alphaKi was found to be 6.9 µM. This molecule came in with an inhibition constant (Ki) at Cholinesterase [6] of 1.55 µM. The inhibition at 10 min, 20 µM at Liver carboxylesterase [3] came out at 22.4%.

In the case of `C=Cc1oc2ccccc2c(=O)c1CN(/C=C/C(=O)OC)Cc1ccccc1`, the concentration for half-maximal inhibition (IC50) is greater than 20 µM against Liver carboxylesterase [1], greater than 20 µM against Acetylcholinesterase and 6.31 µM against Cholinesterase [2]. In addition, the alphaKi in series [5] is 1.94 µM. The molecule also had a Ki at Cholinesterase [6] of 1.79 µM. On Liver carboxylesterase [3], this molecule returned an inhibition at 10 min, 20 µM of 23.6%.

As to `COC(=O)/C=C(\C(=O)OC)N1CCc2oc3ccc(Br)cc3c(=O)c2C1`, the IC50 against Liver carboxylesterase [1], against Acetylcholinesterase and against Cholinesterase [2] was greater than 20 µM each time. This molecule also returned an inhibition in series [4] of 4.3%. Besides, the inhibition at 10 min, 20 µM on Liver carboxylesterase [3] turned out to be 5.1%.

Turning to `CN1CCc2oc3ccc(Br)cc3c(=O)c2C1`, the inhibition in series [4] was 4.2%. In addition, the half-inhibitory concentration (IC50) against Acetylcholinesterase and against Cholinesterase [2] was greater than 20 µM throughout.

Turning to `C=Cc1oc2c(OCC)cccc2c(=O)c1CN(/C=C/C(=O)OC)Cc1ccccc1`, the IC50 against Liver carboxylesterase [1] and against Cholinesterase [2] was greater than 20 µM in each case. In series [4], the inhibition came out at 16.3%. The molecule also came in with an inhibition at 10 min, 20 µM at Liver carboxylesterase [3] of 25.9%.

Consider `C=Cc1oc2ccccc2c(=O)c1CN(C)/C=C/C(=O)OC`, for which the IC50 against Liver carboxylesterase [1] and on Cholinesterase [2] was greater than 20 µM throughout. Further, the inhibition in series [4] was determined as 18.4%. For the same molecule, the inhibition at 10 min, 20 µM against Liver carboxylesterase [3] came to 6.3%.

In the case of `C=Cc1oc2c(OCC)cccc2c(=O)c1CN(/C=C/C(C)=O)Cc1ccccc1`, on Cholinesterase [2], the concentration for half-maximal inhibition (IC50) was found to be 50.1 µM.

As for `O=c1c2c(oc3ccccc13)CCN(Cc1ccccc1)C2`, the inhibition in series [4] was 13%. The concentration for half-maximal inhibition (IC50) against Acetylcholinesterase and against Cholinesterase [2] was greater than 20 µM each time.

`CN1CCc2oc3ccccc3c(=O)c2C1`: at Liver carboxylesterase [1], the IC50 is greater than 20 µM. Also, the inhibition result in series [4] was “inactive”. Further, on Liver carboxylesterase [3], the inhibition at 10 min, 20 µM stood at 6.4%.

Values taken from ChEMBL document CHEMBL4229529, “Synthesis, molecular docking, and biological activity of 2-vinyl chromones: Toward selective butyrylcholinesterase inhibitors for potential Alzheimer's disease therapeutics” (Bioorg Med Chem, 2018).
